Data from patent publication US12448393B2, “Use of novel compound, for preventing, improving or treating amyotrophic lateral sclerosis” (PRG S&TECH INC., priority 2019, dated 2025).
Entries after “also recorded” stand apart in the source; their conditions may differ.

Columns and labels:
misfolded SOD1 [1] = test: Dot blot analysis of misfolded SOD1 in transfected cell lysates; format: cell-based, human; conditions: lysates of cells transfected with WT- or mutant SOD1; FIG. 5D
Description: (§1) To detect misfolded SOD1 expression, cells transfected with SOD1 vector were treated with the compounds for 24 hours. After reaction, the cells were lysed with a lysis buffer without surfactant, and then cell lysate was fixed on a nitrocellulose membrane using a Bio-Dot SF Microfiltration apparatus (Bio-Rad Laboratories, Hercules, CA). In the case of peptide reaction, SOD1 recombinant proteins were reacted with the compounds for 1 hour, and then samples were loaded onto membrane. Each membrane was washed with TBS and blocked with 3% skim milk to prevent non specific reaction. After blocking, the membrane was reacted with the misfolded SOD1 or Actin antibody (1:8,000 in TBST including 1% skim milk) for 30 minutes, and then with a secondary antibody (goat anti-mouse IgG-horseradish peroxidase, 1:50,000 in 1% skim milk blocking buffer) for 30 minutes. Antibodies reacted to proteins were detected by ECL and X-ray film exposure. Actin was used as a loading control.

misfolded SOD1 [2] = target: misfolded SOD1 (Homo sapiens, UniProt P00441, G94A); test: as above; format: cell-based; conditions: G93A-transfected cell lysates; FIG. 5E
Description: as §1

SOD1 [3] = test: Immunofluorescence staining of SOD1 aggregation and misfolded SOD1; format: cell-based, human; conditions: Table 1; IF staining of SOD1
Description: (§2) Cells on coverslip were washed with PBS, fixed with 4% PFA at room temperature for 30 minutes, and then infiltrated with 0.1% Triton X-100/PBS for 10 minutes. The cells were treated with blocking solution (anti-Human Antibody 1:500 dilution in PBS) for 1 hour, and then cells were reacted with anti-pan SOD1 (1:400 dilution), misfolded SOD1 (B8H10; 1:200 dilution in blocking solution) at 4° C. overnight. Finally, the cells were reacted with FITC and rhodamine-conjugated secondary antibody at 4° C. for 6 hours. Nuclei were stained with 4,6-diamidino-2-phenylindole (DAPI), and endoplasmic reticula (ERs) were stained with ER-Tracker Red dye for 10 minutes. The cells were washed 3 times with PBS, and then coverslips were mounted with mounting solution [H-5501; Vector Laboratories (Burlingame, CA, USA)] and analyzed by fluorescence microscopy (Zeiss).
(§3) GFP-SOD1 (WT, G85R, G93A), non-tagged SOD1 (WT, A4V, G37R, G85R, G93A) and tdTomato-TDP43 expression vectors were purchased from Addgene (Cambridge, MA, USA). Transfection was performed using Jet-PEI reagent (JetPEI; Polyplus transfection, New York, NY, USA) according to the manufacturer's protocol. Briefly, vectors were mixed with JetPEI reagent in 150 mM NaCl buffer, and then mixture was reacted for 15 minutes. The mixture was added to cells in serum-free medium and reacted for 4 hours. After reaction, the cells were replaced with a culture medium supplemented with 10% FBS.

SOD1 [4] = target: SOD1 (Homo sapiens, UniProt P00441); test: as above; format: cell-based
Description: as §2, §3

[5] = Pharmacokinetics (PK) analysis; format: in vivo; conditions: FIG. 8E
SOD1^G93A-Tg mice = test: In vivo drug treatment of ALS model mice (grip strength, behaviour, histology, survival); design: species or system mouse
Description: An experiment was performed in a facility approved by the Association for Laboratory Animal Care Assessment and Accreditation in accordance with the animal policy approved by Busan National University. B6SJL-Tg (SOD1^G93A) mice were purchased from Jackson Laboratory (Stock No: 002726). All mice were maintained under temperature and light-controlled conditions (20˜23° C., light-dark cycle 12 hr-12 hr) and were provided with sterile food and water.
Vehicle (DMSO) and SLC-B036 (10 mg/kg, 20 mg/kg) were administered to 12-week-old or 14-week-old SOD1^G93A mice via intraperitoneal injection twice weekly for 6 weeks. Control mice were treated under the same conditions. For histological analysis, mice were sacrificed at 18 weeks. After dissection of mice, spinal cord was fixed with 4% paraformaldehyde for 48 hours according to basic tissue processing procedures, and embedded in a paraffin block. An embedded tissue (cervical region of the spinal cord) was cut into 5 μm with a Leica microtome, and transferred to an adhesive-coated slide (Marienfeld laboratory glassware, Germany). After deparaffinization and rehydration, the slide was stained with hematoxylin and eosin to determine the number of spinal nerves.
For behavioral experiment, grip strength was checked every 2 weeks using a grip strength meter. The mice were allowed to grasp a tension bar with their forelimbs, and then their tails were slowly pulled until they released the bar. To observe motility, respiration, and quadriplegia of the mice, image analysis was performed at the end of administration (18-20 weeks).

SOD1 (Homo sapiens, UniProt P00441), sequence (P00441 2-154): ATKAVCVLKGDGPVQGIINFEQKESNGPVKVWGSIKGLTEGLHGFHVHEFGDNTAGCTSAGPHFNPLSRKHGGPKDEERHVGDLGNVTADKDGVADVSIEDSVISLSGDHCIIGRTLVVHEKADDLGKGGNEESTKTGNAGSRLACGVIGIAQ
misfolded SOD1 (Homo sapiens, UniProt P00441, G94A), sequence (P00441 2-154 G94A): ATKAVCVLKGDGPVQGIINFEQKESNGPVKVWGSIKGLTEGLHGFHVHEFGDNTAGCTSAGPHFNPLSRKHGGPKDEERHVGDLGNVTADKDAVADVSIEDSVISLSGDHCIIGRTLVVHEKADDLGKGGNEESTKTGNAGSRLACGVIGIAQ

In the case of `COc1cc(/C=C/C(=O)O[C@H]2Cc3cc4ccc(=O)oc4cc3OC2(C)C)ccc1O` [PRG-A-01, (S)-8,8-dimethyl-2-oxo-7,8-dihydro-2H,6H-pyrano[3,2-g]chromen-7-yl (E)-3-(4-hydroxy-3-methoxyphenyl) acrylate], the “misfolded SOD1, dot blot” value (misfolded SOD1 [1]) is reported as “reduces misfolding formation of SOD1; also recorded: band intensity clearly decreased”, the “misfolded SOD1, dot blot, according to doses” value (misfolded SOD1 [2]) is reported as “dose-dependent decrease in misfolded SOD1” and the Immuno-fluorscence (SOD1 [3]) is reported as “Effect ○”. The “misfolded SOD1 / SOD1 aggregation induced by hypoxic stress” value (SOD1 [4]; CoCl2, FIG. 6C) was “blocks SOD1 aggregation induced by hypoxic stress; also recorded: reduced”, the “SOD1 aggregation induced by TDP-43 overexpression, immunofluorescence” value (SOD1 [4]; FIG. 5A) was “inhibited; also recorded: reduce the SOD1 aggregation as well as TDP-43” and the “time to disappearance in body / blood” value [5] was ≤ 30 min. For the same compound, the “dose dependence of effect on grip strength” value (SOD1^G93A-Tg mice; 20 mg/kg more effective than 10 mg/kg, FIGS. 8A and 8B) was “dose-dependent effect”, the “effects in ALS model mice” value (SOD1^G93A-Tg mice; FIGS. 11A and 11B, summary statements) was “protective effect against muscle weakness and movement disorder” and the lifespan extension (SOD1^G93A-Tg mice; Kaplan-Meier survival, FIG. 8D) was 10 days. The In vivo (SOD1^G93A-Tg mice; Table 1, ALS model mice) was “Effect ○”, the “muscle strength compared to wild-type mice” value (SOD1^G93A-Tg mice; i.p. twice a week, administration from 12 weeks of age, grip strength, FIG. 7B) was “about 70%” and the “viability of cervical spinal nerves, histological analysis” value (SOD1^G93A-Tg mice; spinal cord, H&E, FIG. 7D) was “intraspinal nerves were maintained and high”. For the same compound, the “muscle function, late treatment” value (SOD1^G93A-Tg mice; starting at 14 weeks of age, forelimb grip strength, FIGS. 8A and 8B) was “good effect on muscle function”.
